The values that follow come from patent US9284307B2, “Macrocyclic serine protease inhibitors” (Idenix Pharmaceuticals LLC, priority 2009, dated 2016).

One data set deals with T1, HCV NS3-NS4A protease 1a (Hepatitis C virus genotype 1a, UniProt P27958).
T1 construct: using 2-3 nM HCV NS3-NS4A protease, which was produced according to the method of Taremi et al; made in house
In words: HCV protease assay (HiLyte Fluor TR/QXL 610 FRET peptide), genotype 1a. The data set is classed as biochemical. The note with it: 2-3 nM protease, 60 min at 30° C., read-out: IC50 Against HS3/4A 1a. On the procedure: (§1) Measurement of the inhibitory effect of compounds on HCV protease activity was performed using the HiLyte Fluor™ TR/QXL™ 610 FRET peptide from AnaSpec, Inc. (San Jose, Calif.) under conditions developed in-house using 2-3 nM HCV NS3-NS4A protease, which was produced according to the method of Taremi et al. (Protein Science, 1998, 7, 2143-2149). The compounds were tested at a variety of concentrations in assay buffer containing a final DMSO concentration of 5%. Reactions were allowed to proceed for 60 min at 30° C. and fluorescence measurements were recorded with a PerkinElmer Victor^3 V 1420 Multilabel Counter. The IC50 values were determined from the percent inhibition versus concentration data using a sigmoidal non-linear regression analysis based on four parameters with XLfit 4.1 software.

Another data set deals with T2, HCV NS3-NS4A protease 3a (Hepatitis C virus genotype 3a, UniProt Q81258).
T2 construct: using 2-3 nM HCV NS3-NS4A protease, which was produced according to the method of Taremi et al; made in house
In words: HCV protease assay (HiLyte Fluor TR/QXL 610 FRET peptide), genotype 3a. The data set is classed as biochemical. The note with it: 2-3 nM protease, 60 min at 30° C., read-out: IC50 Against HS3/4A 3a. On the procedure: as §1

Data set [1] concerns HCV luciferase-bearing mutant replicon, NS3 A156T, in cured GS4.1 cells. In words: Luciferase replicon transient transfection assay, A156T mutant replicon. The data set is classed as cell-based. The method, then:
(§2) The luciferase replicon transient transfection assay measures the ability of a test compound to inhibit the replication of a transiently-transfected HCV luciferase-bearing wild-type or mutant replicon in cured human hepatoma cells (cured GS4.1). The mutant replicons bear a specific single-site mutation in NS3 that is known to confer resistance to protease inhibitors currently in development. The inhibition of HCV replication was measured by quantification of luciferase protein expression. This assay has been validated using a panel of replicons bearing known protease inhibitor resistance mutations and their respective reference compounds. Briefly, subconfluent cured GS4.1 cells in OptiBuffer (ThermoElectron Corp.) were electroporated with 40 μg of wild-type or mutant luciferase-bearing HCV replicon RNA. The cells were then seeded in 96-well opaque white plates at 2.4×10^4 cells/well in 150 μL/well and incubated for 4 hours at 37° C./5% CO2. […] The plates were agitated on a rotating platform at room temperature for 3 minutes and read in a Victor^3V microplate reader (Perkin-Elmer) using a 700 nm cut-off filter with a 1 second read time. EC50 values were calculated from dose response curves from the resulting best-fit equations determined by Microsoft Excel and XLfit 4.1 software.

Data set [2] has as its system HCV Con1 subgenomic replicon in Huh-7 cells (GS4.1 cells). In words: HCV replicon assay (NS4A ELISA, GS4.1 cells). The data set is classed as cell-based. The note with it: Hepatitis C virus, 72 hr. On the procedure: Huh-7 cells containing HCV Con1 subgenomic replicon (GS4.1 cells) were grown in Dulbecco's Modified Eagle Medium (DMEM) supplemented with 10% fetal bovine serum (FBS), 2 mM L-glutamine, 110 mg/L sodium pyruvate, 1× non-essential amino acids, 100 U/mL penicillin-streptomycin, and 0.5 mg/mL G418 (Invitrogen). For dose-response testing, the cells were seeded in 96-well plates at 7.5×10^3 cells/well in a volume of 50 μL, and incubated at 37° C./5% CO2. Three hours after plating, 50 μL of ten 2-fold serial dilutions of compounds (highest concentration, 75 μM) were added, and cell cultures were incubated at 37° C./5% CO2 in the presence of 0.5% DMSO. Alternatively, compounds were tested at a single concentration of 15 μM. In all cases, Huh-7 cells lacking the HCV replicon served as negative control. The cells were incubated in the presence of compounds for 72 hr after which they were monitored for expression of the NS4A protein by enzyme-linked immunosorbent assay (ELISA). […] The reaction was stopped after 30 min with 2 N H2SO4, and absorbance was read at 492 nm using Sunrise Tecan spectrophotometer. EC50 values were determined from the % inhibition versus concentration data using a sigmoidal non-linear regression analysis based on four parameters with Tecan Magellan software.

The test system of data set [3] is HCV luciferase-bearing mutant replicon, NS3 R155K, in cured GS4.1 cells. Put plainly: Luciferase replicon transient transfection assay, R155K mutant replicon. The data set is classed as cell-based. The method, then: as §2
The next data set is described as follows: in vitro. The data set is classed as cell-based. As to conditions: human. The method, then:
For cytotoxicity evaluation, GS4.1 cells were treated with compounds as described above and cellular viability was monitored using the Cell Titer 96 AQueous One Solution Cell Proliferation Assay (Promega). CC50 values were determined from the % cytotoxicity versus concentration data with Tecan Magellan software as described above.

A further data set has as its target T3, HCV NS3-NS4A protease (Hepatitis C virus genotype 1b, UniProt Q9WMX2).
T3 construct: using 1.2 nM HCV NS3-NS4A protease, which was obtained according to Taremi et al; made in house
Put plainly: HCV protease assay (SensoLyte 620 HCV Protease Assay kit). The data set is classed as biochemical. As to conditions: 1.2 nM HCV NS3-NS4A protease, 60 min at room temperature. The method, then: Measurement of the inhibitory effect of compounds on HCV protease activity was performed with the SensoLyte™ 620 HCV Protease Assay kit from AnaSpec, Inc. (San Jose, Calif.) under conditions described by the supplier using 1.2 nM HCV NS3-NS4A protease, which was obtained according to Taremi et al. (Protein Science, 1998, 7, 2143-2149). The compounds were tested at a variety of concentrations in assay buffer containing a final DMSO concentration of 5%. Reactions were allowed to proceed for 60 min at room temperature and fluorescence measurements were recorded with a Tecan Infinity Spectrofluorimeter. The IC50 values were determined from the percent inhibition versus concentration data using a sigmoidal non-linear regression analysis based on four parameters with Tecan Magellan software.

Each structure is given as a SMILES string.

T2 sequence (Q81258 1033-1214): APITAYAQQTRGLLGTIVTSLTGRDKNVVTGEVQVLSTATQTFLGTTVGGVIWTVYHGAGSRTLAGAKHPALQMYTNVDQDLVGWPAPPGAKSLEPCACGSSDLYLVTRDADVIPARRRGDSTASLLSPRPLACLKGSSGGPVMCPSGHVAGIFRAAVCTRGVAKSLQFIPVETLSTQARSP
T1 sequence (P27958 1027-1208): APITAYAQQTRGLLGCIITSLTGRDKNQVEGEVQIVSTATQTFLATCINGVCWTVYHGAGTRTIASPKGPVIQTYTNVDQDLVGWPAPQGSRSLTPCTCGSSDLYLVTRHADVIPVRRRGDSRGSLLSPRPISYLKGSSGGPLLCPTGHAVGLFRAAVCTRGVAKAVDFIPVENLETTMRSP
T3 sequence (Q9WMX2 1027-1208): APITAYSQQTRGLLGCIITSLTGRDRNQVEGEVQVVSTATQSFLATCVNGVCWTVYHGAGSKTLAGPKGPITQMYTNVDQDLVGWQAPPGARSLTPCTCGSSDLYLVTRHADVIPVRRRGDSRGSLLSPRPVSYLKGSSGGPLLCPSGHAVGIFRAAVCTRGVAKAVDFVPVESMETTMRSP

Turning to `COc1ccc2c(O[C@H]3CC[C@H]4C(=O)N(C)CCCC/C=C\[C@@H]5C[C@@]5(C(=O)NS(=O)(=O)C5(C)CC5)NC(=O)[C@@H]4C3)cc(-c3nc(C(F)(F)F)cs3)nc2c1C` [Compound 51], the IC50 at HCV NS3-NS4A protease 1a, on HCV NS3-NS4A protease 3a and on HCV NS3-NS4A protease was less than 1 µM throughout. Further, the “Fold Change, A156T replicon” value in data set [1] (EC50 fold change, A156T replicon) is 20-95. The EC50 in data set [1] (Hepatitis C virus, 96 h, read-out: EC50(nm), A156T replicon) was 0.025 to 0.04 µM; in data set [2], less than 1 µM; in data set [3] (Hepatitis C virus, 96 h, read-out: EC50(nm), R155K replicon), 0.005 to 0.015 µM. The “Fold Change, R155K replicon” value in data set [3] (EC50 fold change, R155K replicon) is 10-20. This molecule also showed a CC50 in the data set “in vitro” of 10 to 75 µM.
